In patent publication US11447500B2, “Thienopyridine derivatives and pharmaceutical composition comprising same” (WELLMARKER BIO CO., LTD., priority 2018, dated 2022):
pIC50: −log10 of the molar value. Blank lines part the entries; values can stand above or below the compound they belong to.

What was measured:
[1] = target: T1, RON kinase (Homo sapiens, UniProt Q04912); test: RON kinase enzyme inhibitory activity, FRET (TR-FRET) technique; assay type: biochemical; settings: 60 min reaction
T1 construct: purchased Carna Bioscience
T1 sequence (Q04912 25-1400): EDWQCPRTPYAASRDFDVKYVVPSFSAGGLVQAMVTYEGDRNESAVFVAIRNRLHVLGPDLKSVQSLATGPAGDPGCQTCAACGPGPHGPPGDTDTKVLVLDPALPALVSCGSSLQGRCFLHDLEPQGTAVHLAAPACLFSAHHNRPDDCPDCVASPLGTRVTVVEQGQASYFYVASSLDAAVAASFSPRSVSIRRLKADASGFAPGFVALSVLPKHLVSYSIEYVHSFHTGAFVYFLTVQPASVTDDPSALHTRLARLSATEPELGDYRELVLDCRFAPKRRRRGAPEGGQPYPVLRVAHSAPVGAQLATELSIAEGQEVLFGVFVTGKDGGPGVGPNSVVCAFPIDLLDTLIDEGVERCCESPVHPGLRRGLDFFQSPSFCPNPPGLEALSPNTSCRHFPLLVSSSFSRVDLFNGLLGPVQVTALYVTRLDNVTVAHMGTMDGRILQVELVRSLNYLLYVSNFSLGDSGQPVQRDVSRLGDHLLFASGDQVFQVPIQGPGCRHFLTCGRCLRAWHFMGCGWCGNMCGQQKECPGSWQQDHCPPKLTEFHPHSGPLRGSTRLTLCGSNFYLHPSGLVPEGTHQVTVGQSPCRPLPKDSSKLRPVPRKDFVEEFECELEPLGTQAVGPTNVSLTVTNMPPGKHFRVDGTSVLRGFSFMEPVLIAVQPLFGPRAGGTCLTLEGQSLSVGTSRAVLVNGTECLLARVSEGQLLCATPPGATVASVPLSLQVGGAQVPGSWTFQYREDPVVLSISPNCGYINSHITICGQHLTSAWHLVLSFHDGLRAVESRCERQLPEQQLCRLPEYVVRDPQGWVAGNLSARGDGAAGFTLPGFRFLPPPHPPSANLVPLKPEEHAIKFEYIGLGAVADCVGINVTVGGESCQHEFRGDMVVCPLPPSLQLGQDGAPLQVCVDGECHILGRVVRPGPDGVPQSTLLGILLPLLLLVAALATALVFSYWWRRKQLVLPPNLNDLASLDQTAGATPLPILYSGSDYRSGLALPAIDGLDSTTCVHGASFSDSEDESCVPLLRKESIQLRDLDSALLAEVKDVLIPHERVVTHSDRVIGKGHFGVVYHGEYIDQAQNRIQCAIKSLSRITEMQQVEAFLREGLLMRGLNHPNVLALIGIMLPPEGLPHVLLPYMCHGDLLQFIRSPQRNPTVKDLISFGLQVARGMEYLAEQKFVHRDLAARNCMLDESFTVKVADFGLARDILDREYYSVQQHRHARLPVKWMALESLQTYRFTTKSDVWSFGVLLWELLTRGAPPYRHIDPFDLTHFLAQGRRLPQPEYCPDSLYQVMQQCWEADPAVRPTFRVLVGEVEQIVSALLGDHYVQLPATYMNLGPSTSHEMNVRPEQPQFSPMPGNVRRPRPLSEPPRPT
Description: The enzyme inhibitory activity (IC50) of the thienopyridine derivative was measured using FRET (fluorescence resonance energy transfer) technique. RON kinase (Carna Bioscience) was diluted with a kinase assay buffer (50 mM HEPES pH 7.5, 1 mM EGTA, 10 mM MgCl2, 2 mM DTT, and 0.01% Tween-20) to a concentration of 2× (0.4 nM) the final reaction concentration and the dilution was added to a 384-well plate at 5 μL/well. As sample compounds, the compounds synthesized in the examples of the present invention and the compounds of the comparative examples were used. The sample compounds were respectively dissolved in 100% DMSO to obtain 1 mM stock solutions, which were then subjected to eight 10-fold serial dilutions. The sample compounds were diluted with the kinase assay buffer to a concentration of 4× the final reaction concentration, and the dilutions were added to the 384-well plate at 2.5 μL/well. The plate was incubated at room temperature for 15 minutes. Next, 0.25 M ATP solution (Sigma Aldrich) was diluted with the kinase reaction buffer to a concentration of 4× (60 μM) the final reaction concentration, and a tyrosine peptide substrate (Perkin-Elmer) was diluted therein to a concentration of 4× (400 nM) the final reaction concentration. The dilution was added to the 384-well plate at 2.5 μL/well. Then, the 384-well plate was incubated at room temperature and the reaction was allowed to proceed for 60 minutes. After 60 minutes, EDTA (Sigma Aldrich) was diluted with TR-FRET detection buffer (Perkin-Elmer) to a concentration of 4× (40 mM) the final reaction concentration. A europium-labeled anti-phosphotyrosine antibody (Perkin-Elmer) was diluted in the above EDTA dilution to a concentration of 4× (8 nM) the final reaction concentration to prepare a stop solution of the RON kinase reaction. The stop solution was added to the 384-well plate at 10 μL/well to terminate the reaction, and the plate was incubated at room temperature for 60 minutes. Thereafter, the plate was read on Victor X5 plate reader (Perkin-Elmer). At this time, the excitation wavelength was 340 nm and the emission wavelengths were 620 nm and 665 nm. The IC50 values of the sample compounds were determined using GraphPad Prism™ 5 by expressing the emission energy at 665 nm as a function of the sample compound concentration.

[2] = system: RON-activated KM12C colon cancer cell line; test: Cell killing efficacy, trypan blue exclusion assay, KM12C; assay type: cell-based; settings: 48 hours
Description: (§1) Two colon cancer cell lines, RON-activated KM12C (80015, KCLB, MEM+10% FBS) and RON-mutated (Δ160) HT-29 (30038, KCLB, RPMI+10% FBS) were prepared in 6-well plates at 5×10^4 cells/well, respectively. After 24 hours, while freshly changing the medium, the sample compounds were added to the wells at a concentration of 1 μM or 5 μM and the plates were allowed to stand for 48 hours.
(§2) As the sample compounds, the compounds synthesized in the examples of the present invention and the compounds of the comparative examples were used.
(§3) After 48 hours, the cell suspensions were collected and centrifuged (1,500 rpm, 4 min.) to obtain the cells, and live cells and dead cells were quantitated (n=2) through a trypan blue (15250-061, Gibco) exclusion assay. The statistical analysis was performed using Excel™ T-test from Microsoft.
(§4) The cell death rates of the compounds of Examples and Comparative Examples were respectively measured and the results are shown in Table 4 as relative ratios to Comparative Example 1.

[3] = system: RON-mutated (Δ160) HT-29 colon cancer cell line; test: Cell killing efficacy, trypan blue exclusion assay, HT-29; assay type: cell-based; settings: HT29 cell, 48 hours
Description: as §1, §2, §3, §4

[4] = system: KM12C cells; test: Cytotoxicity MTS assay, KM12C; assay type: cell-based; settings: Homo sapiens, 72 hours
Description: (§5) In order to confirm the specific cytotoxicity of the drugs, the cultured cells were treated with 0.05% trypsin/EDTA (0.5% trypsin EDTA (10×), Product No.: 15400-054, GIBCO) to detach them from the culture dish, and 3,000 cells (KM12C) or 2,000 cells (HT29, Colo 320 HSR) were dispensed into each well.
(§6) After 24 hours, sample compounds were dissolved in DMSO (Product No.: D8418-250ML, SIGMA) to make 10 mM stock solutions. As the sample compounds, the compounds synthesized in the examples of the present invention and the compounds of the comparative examples were used.
(§7) The cells were treated with the sample compound dilutions, and cultured in a 5% CO2 incubator at 37° C. for 72 hours.
(§8) Thereafter, 20 μL of MTS solution (CellTiter™ 96 Aqueous One Solution Cell Proliferation Assay, Product No.: G3581, Promega) was dispensed into each well and mixed well, and the cells were incubated for 1 to 4 hours at 37° C. in a 5% CO2 incubator.

[5] = system: HT29 cells; test: Cytotoxicity MTS assay, HT29; assay type: cell-based; settings: Homo sapiens, HT-29, 72 hours
Description: as §5, §6, §7, §8

- pIC50 [1]: 8.95
Structure (SMILES): CCOc1ccn(-c2ccc(F)cc2)c(=O)c1C(=O)Nc1ccc(Oc2ccnc(N)c2Cl)c(F)c1 [Comp. Ex. 1, N-{4-[(2-amino-3-chloro-4-pyridinyl)oxy]-3-fluorophenyl}-4-ethoxy-1-(4-fluorophenyl)-2-oxo-1,2-dihydro-3-pyridinecarboxamide, reference compound]
- Cell death rate (Relative to Comp. Ex. 1) ([2]; 1 μM): x 1.00
- Cell death rate (Relative to Comp. Ex. 1) ([2]; 5 μM): x 1.00
- Cell death rate (Relative to Comp. Ex. 1) ([3]; 1 μM): x 1.00
- Cell death rate (Relative to Comp. Ex. 1) ([3]; 5 μM): x 1.00
- pIC50 [4]: 6.29
- pIC50 [5]: 4.70 to 5.00

- pIC50 [1]: 9.35
Structure (SMILES): CCOc1ccn(-c2cccc(F)c2)c(=O)c1C(=O)Nc1ccc(Oc2ccnc3cc(-c4ccc(CNCCOC)cn4)sc23)c(F)c1.Cl [Example 14, 4-ethoxy-N-(3-fluoro-4-{[2-(5-{[(2-methoxyethyl)amino]methyl}pyridin-2-yl)thieno[3,2-b]pyridin-7-yl]oxy}phenyl)-1-(3-fluorophenyl)-2-oxo-1,2-dihydropyridine-3-carboxamide Hydrochloride]
- Cell death rate (Relative to Comp. Ex. 1) ([2]; 1 μM): x 1.58
- Cell death rate (Relative to Comp. Ex. 1) ([2]; 5 μM): x 1.43
- Cell death rate (Relative to Comp. Ex. 1) ([3]; 1 μM): x 1.59
- Cell death rate (Relative to Comp. Ex. 1) ([3]; 5 μM): x 3.81
- pIC50 [4]: 7.20
- pIC50 [5]: 6.18

- pIC50 [1]: 9.41
Structure (SMILES): CCOc1ccn(-c2ccc(F)cc2)c(=O)c1C(=O)Nc1ccc(Oc2ccnc3cc(-c4ccc(CN5CCOCC5)cn4)sc23)c(F)c1.Cl [Example 31, 4-ethoxy-N-[3-fluoro-4-({2-[5-(morpholinomethyl)pyridin-2-yl]thieno[3,2-b]pyridin-7-yl}oxy)phenyl]-1-(4-fluorophenyl)-2-oxo-1,2-dihydropyridine-3-carboxamide Hydrochloride]
- Cell death rate (Relative to Comp. Ex. 1) ([2]; 1 μM): x 1.52
- Cell death rate (Relative to Comp. Ex. 1) ([2]; 5 μM): x 1.17
- Cell death rate (Relative to Comp. Ex. 1) ([3]; 1 μM): x 2.11
- Cell death rate (Relative to Comp. Ex. 1) ([3]; 5 μM): x 1.21
- pIC50 [4]: 8.15
- pIC50 [5]: 6.22

- pIC50 [1]: 9.64
Structure (SMILES): COCCNCc1ccc(-c2cc3nccc(Oc4ccc(NC(=O)c5c(C)ccn(-c6ccc(F)cc6)c5=O)cc4F)c3s2)nc1.Cl [Example 25, N-(3-fluoro-4-{[2-(5-{[(2-methoxyethyl)amino]methyl}pyridin-2-yl)thieno[3,2-b]pyridin-7-yl]oxy}phenyl)-1-(4-fluorophenyl)-4-methyl-2-oxo-1,2-dihydropyridine-3-carboxamide Hydrochloride]
- Cell death rate (Relative to Comp. Ex. 1) ([2]; 1 μM): x 0.44
- Cell death rate (Relative to Comp. Ex. 1) ([2]; 5 μM): x 0.69
- Cell death rate (Relative to Comp. Ex. 1) ([3]; 1 μM): x 3.13
- Cell death rate (Relative to Comp. Ex. 1) ([3]; 5 μM): x 2.97
- pIC50 [4]: 7.60
- pIC50 [5]: 5.86

- pIC50 [1]: 11.00
Structure (SMILES): CCOc1ccn(-c2ccc(Cl)cc2)c(=O)c1C(=O)Nc1ccc(Oc2ccnc3cc(-c4ccc(CNCCOC)cn4)sc23)c(F)c1.Cl [Example 8, 1-(4-chlorophenyl)-4-ethoxy-N-(3-fluoro-4-{[2-(5-{[(2-methoxyethyl)amino]methyl}pyridin-2-yl)thieno[3,2-b]pyridin-7-yl]oxy}phenyl)-2-oxo-1,2-dihydropyridine-3-carboxamide Hydrochloride]
- Cell death rate (Relative to Comp. Ex. 1) ([2]; 1 μM): x 0.92
- Cell death rate (Relative to Comp. Ex. 1) ([2]; 5 μM): x 1.19
- Cell death rate (Relative to Comp. Ex. 1) ([3]; 1 μM): x 2.24
- Cell death rate (Relative to Comp. Ex. 1) ([3]; 5 μM): x 2.52

- pIC50 [1]: 9.38
Structure (SMILES): COCCNCc1ccc(-c2cc3nccc(Oc4ccc(NC(=O)c5c(OC)ccn(-c6ccccc6)c5=O)cc4F)c3s2)nc1.Cl [Example 3, N-(3-fluoro-4-{[2-(5-{[(2-methoxyethyl)amino]methyl}pyridin-2-yl)thieno[3,2-b]pyridin-7-yl]oxy}phenyl)-4-methoxy-2-oxo-1-phenyl-1,2-dihydropyridine-3-carboxamide Hydrochloride]
- Cell death rate (Relative to Comp. Ex. 1) ([2]; 1 μM): x 0.66
- Cell death rate (Relative to Comp. Ex. 1) ([2]; 5 μM): x 1.26
- Cell death rate (Relative to Comp. Ex. 1) ([3]; 1 μM): x 1.80
- Cell death rate (Relative to Comp. Ex. 1) ([3]; 5 μM): x 2.22

The next lines start with the compound.

Structure (SMILES): COCCNCc1ccc(-c2cc3nccc(Oc4ccc(NC(=O)c5c(C)ccn(-c6ccccc6)c5=O)cc4F)c3s2)nc1.Cl [Example 28, N-(3-fluoro-4-{[-2-(5-{[(2-methoxyethyl)amino]methyl}pyridin-2-yl)thieno[3,2-b]pyridin-7-yl]oxy}phenyl)-4-methyl-2-oxo-1-phenyl-1,2-dihydropyridine-3-carboxamide Hydrochloride]
- pIC50 [1]: 9.25
- Cell death rate (Relative to Comp. Ex. 1) ([2]; 1 μM): x 1.22
- Cell death rate (Relative to Comp. Ex. 1) ([2]; 5 μM): x 1.58
- Cell death rate (Relative to Comp. Ex. 1) ([3]; 1 μM): x 1.46
- Cell death rate (Relative to Comp. Ex. 1) ([3]; 5 μM): x 2.65
- pIC50 [4]: 7.23
- pIC50 [5]: 6.04

Structure (SMILES): CCOc1ccn(-c2ccccc2)c(=O)c1C(=O)Nc1ccc(Oc2ccnc3cc(-c4ccc(CN5CCOCC5)cn4)sc23)c(F)c1.Cl [Example 32, 4-ethoxy-N-[3-fluoro-4-({2-[5-(morpholinomethyl)pyridin-2-yl]thieno[3,2-b]pyridin-7-yl}oxy)phenyl]-2-oxo-1-phenyl-1,2-dihydropyridine-3-carboxamide Hydrochloride]
- pIC50 [1]: 9.09
- Cell death rate (Relative to Comp. Ex. 1) ([2]; 1 μM): x 1.52
- Cell death rate (Relative to Comp. Ex. 1) ([2]; 5 μM): x 1.11
- Cell death rate (Relative to Comp. Ex. 1) ([3]; 1 μM): x 1.55
- Cell death rate (Relative to Comp. Ex. 1) ([3]; 5 μM): x 1.45
- pIC50 [4]: 8.52
- pIC50 [5]: 6.49

Structure (SMILES): CCOc1ccn(-c2ccccc2)c(=O)c1C(=O)Nc1ccc(Oc2ccnc3cc(-c4ccc(CN5CCN(C)CC5)cn4)sc23)c(F)c1.Cl [Example 34, Hydrochloride]
- pIC50 [1]: 9.64
- pIC50 [4]: 8.22
- pIC50 [5]: 6.89

Structure (SMILES): COc1ccc2c(Oc3ccc(NC(=O)c4c(C)n(CC(C)(C)O)n(-c5ccccc5)c4=O)cc3F)ccnc2c1 [Comp. Ex. 2, N-(3-fluoro-4-(7-methoxyquinolin-4-yloxy)phenyl)-1-(2-hydroxy-2-methylpropyl)-5-methyl-3-oxo-2-phenyl-2,3-dihydro-1H-pyrazole-4-carboxamide, reference compound]
- pIC50 [1]: 8.54
- Cell death rate (Relative to Comp. Ex. 1) ([2]; 1 μM): x 0.38
- Cell death rate (Relative to Comp. Ex. 1) ([2]; 5 μM): x 0.31
- Cell death rate (Relative to Comp. Ex. 1) ([3]; 1 μM): x 0.59
- Cell death rate (Relative to Comp. Ex. 1) ([3]; 5 μM): x 0.32

Structure (SMILES): COCCNCc1ccc(-c2cc3nccc(Oc4ccc(NC(=O)c5c(OC)ccn(-c6ccc(F)cc6)c5=O)cc4F)c3s2)nc1.Cl [Example 2, N-(3-fluoro-4-{[2-(5-{[(2-methoxyethyl)amino]methyl}pyridin-2-yl)thieno[3,2-b]pyridin-7-yl]oxy}phenyl)-1-(4-fluorophenyl)-4-methoxy-2-oxo-1,2-dihydropyridine-3-carboxamide Hydrochloride]
- pIC50 [1]: 10.00
- Cell death rate (Relative to Comp. Ex. 1) ([2]; 1 μM): x 1.33
- Cell death rate (Relative to Comp. Ex. 1) ([2]; 5 μM): x 0.74
- Cell death rate (Relative to Comp. Ex. 1) ([3]; 1 μM): x 0.62
- Cell death rate (Relative to Comp. Ex. 1) ([3]; 5 μM): x 1.15
